# In patent US20020052361A1, “Pharmaceutical compositions and method for the treatment of hypertension” (priority 1999, published 2002):
# Assays:
# Format in all cases: in vivo, Sprague-Dawley rats
# chronically hypoxic rats [1] = assay: Haemodynamic tests: pulmonary artery pressure in rats kept 14 days under normoxic or hypoxic conditions; settings: for PAP (pulmonary artery pressure): rats, 40 mg/kg/day for 14 days via i.p. osmotic mini-pump, mean ± SD
# Protocol: (§1) The test substance employed was (3S,2R′)-3-[1-(2′-(carboxy-4′-phenylbutyl)cyclopentane-1-carbonylamino]-2,3,4,5-tetrahydro-2-oxo-1H-1-benzazepine-1-acetic acid, which is representative of the substances of formula I which can be used in the invention. The dose of the substance administered was 40 mg/kg per day (sufficient to suppress the pressure feedback on big endothelin).
# (§2) The test animals used were Sprague-Dawley rats (260 to 310 g; n=6 to 10 per test group). In order to produce pulmonary hypertension, the animals were exposed to […] hypoxic conditions in a pressure chamber. For comparison, one control group was kept under normal air and another control group under hypoxic conditions.
# (§3) The animals were treated with the active substance or a vehicle by means of osmotic mini-pumps. The osmotic mini-pumps had been implanted intraperitoneally in the animals before they were kept in a pressure chamber 24 h later for a period of two weeks. There the animals were kept at normal pressure either under hypoxic conditions (10% O2) or in normal air. After two weeks the animals were prepared for the haemodynamic tests and the measurements were carried out.
# The animals were anaesthetised, then a ready-made cannula was inserted into the pulmonary artery in a conventional manner via the right jugular vein, atrium and ventricle. A catheter was inserted into the left jugular vein in order to allow intravenous administration of active substances. The left carotid artery was also fitted with a cannula for the purpose of measuring systemic blood pressure. Once the animals were conscious, pulmonary artery pressure (PAP) was recorded. The rats were then exposed to hypoxic conditions (10% O2) again for 10 minutes in a mini-chamber and the increase in pulmonary artery pressure was measured and also recorded. The effects of the test substance on PAP under normotoxic and hypoxic conditions are presented in Table 1 in comparison with the control tests. The given data are means±standard deviations and were statistically analysed by means of ANOVA.
# chronically hypoxic rats [2] = assay: Measurement of the antihypertrophic effect: right and left ventricular weights; settings: for Rt/LtHWt (ratio of right to left ventricular weight) / RtHWt (right ventricular weight) / RtHWt/BW (ratio of right ventricular weight to body weight): rats, 40 mg/kg/day for 14 days, mean ± SD
# Protocol: as §1, §2, §3
# After completion of the haemodynamic tests, the animals were sacrificed and their hearts were dissected out. The weights of the right and left ventricles were determined and calculated in relation to bodyweight. The effects of the test substance on the heart weights under normotoxic and hypoxic conditions are presented in Table 1 in comparison with the control tests. The given data are means±standard deviations and were statistically analysed by means of ANOVA.
# chronically hypoxic rats [3] = assay: Effect on pulmonary artery remodelling: muscularisation of distal pulmonary vessels (histology, van Gieson staining)
# Protocol: as §1, §2, §3
# After the rats had been sacrificed, the lungs as well as the hearts were isolated. The lungs underwent histological examination, i.e. the degree of muscularisation of the distal pulmonary vessels was determined after “van Gieson” staining, by microscopy at 400× magnification. The effects of the test substance on pulmonary artery remodelling (i.e. on muscularisation of the distal pulmonary vessels) during two weeks' hypoxia are presented in Table 2 in comparison with the hypoxic control tests. The given data are means±standard deviations and were statistically analysed by means of ANOVA.
# chronically hypoxic rats [4] = assay: Haemodynamic tests: systemic blood pressure via carotid artery cannula; settings: 40 mg/kg per day, result in words
# Protocol: as §1, §2
# The animals were treated with the active substance or a vehicle by means of osmotic mini-pumps. […]
# The animals were anaesthetised, then a ready-made cannula was inserted into the pulmonary artery in a conventional manner via the right jugular vein, atrium and ventricle. […] Once the animals were conscious, pulmonary artery pressure (PAP) was recorded. The rats were then exposed to hypoxic conditions (10% O2) again for 10 minutes in a mini-chamber and the increase in pulmonary artery pressure was measured and also recorded. […] The given data are means±standard deviations and were statistically analysed by means of ANOVA.
# [5] = hypoxic rats, 40 mg/kg per day, result in words
# [6] = rats, 14 days' hypoxia, 40 mg/kg/day for 14 days, mean ± SD, n = 8
compound,measurement,setting,value
O=C(O)CN1C(=O)[C@@H](NC(=O)C2(C[C@@H](CCc3ccccc3)C(=O)O)CCCC2)CCc2ccccc21 [Test substance],Effect on pulmonary artery pressure (PAP) in comparison with hypoxic control animals,chronically hypoxic rats [1]; [5],statistically significant decrease
same,PAP (pulmonary artery pressure),"chronically hypoxic rats [1]; 14-day hypoxia (10% O2), n=9",33.2 ± 1.2 mmHg
same,PAP (pulmonary artery pressure),"chronically hypoxic rats [1]; 14-day normoxia, n = 8",22.2 ± 1 mmHg
same,Effect on ratio between right and left ventricular weights,chronically hypoxic rats [2]; [5],tendency towards a reduction
same,Effect on ratio between right heart weight and bodyweight,chronically hypoxic rats [2]; [5],tendency towards a reduction
same,Effect on right heart weight (antihypertrophic effect) in comparison with hypoxic control tests,chronically hypoxic rats [2]; [5],statistically significant reduction
same,Rt/LtHWt (ratio of right to left ventricular weight),"chronically hypoxic rats [2]; 14-day hypoxia (10% O2), n=9",0.40 ± 0.02 mg/mg
same,RtHWt (right ventricular weight),"chronically hypoxic rats [2]; 14-day hypoxia (10% O2), n=9",242 ± 6.4 mg
same,RtHWt/BW (ratio of right ventricular weight to body weight),"chronically hypoxic rats [2]; 14-day hypoxia (10% O2), n=9",0.87 ± 0.03 mg/g
same,Rt/LtHWt (ratio of right to left ventricular weight),"chronically hypoxic rats [2]; 14-day normoxia, n = 8",0.25 ± 0.01 mg/mg
same,RtHWt (right ventricular weight),"chronically hypoxic rats [2]; 14-day normoxia, n = 8",171 ± 10 mg
same,RtHWt/BW (ratio of right ventricular weight to body weight),"chronically hypoxic rats [2]; 14-day normoxia, n = 8",0.56 ± 0.03 mg/g
same,Effect on muscularisation of the distal pulmonary vessels,chronically hypoxic rats [3]; [5],statistically significantly reduced
same,Muscularised distal pulmonary vessels,chronically hypoxic rats [3]; [6],52 ± 5 %
same,Non-muscularised distal pulmonary vessels,chronically hypoxic rats [3]; [6],9 ± 3%
same,Partly muscularised distal pulmonary vessels,chronically hypoxic rats [3]; [6],39 ± 4 %
same,Effect on normal systemic blood pressure (hypotensive properties),chronically hypoxic rats [4],unaffected
